Assay results taken from patent US20230146455A1, “TREATMENT OF INFLAMMATORY DISEASES WITH PEPTIDES AND PHARMACEUTICAL COMPOSITIONS” (Yuyu Pharma, Inc., priority 2020, published 2023).
Values joined by “and” are separate entries in the source; they are usually repeats but may differ in a detail not shown here. Equal entries are not always repeated. “Also recorded” adds a separate entry of the source. Where a SMILES comes first, the peptide text is derived from it. [ ]: non-standard residue; d: D form. Hyp = O=C(O)[C@@H]1C[C@@H](O)CN1

System: human PBMCs
Assay: PBMC cell counts (total, live, viability; trypan blue, Countess) with and without LPS and test articles (Example 9)
Assay type: cell-based
Procedure: Treatment Human PBMCs were pretreated with YY-101, YDE-011 and YDE-043 or reference compound; Xiidra® at various concentration (ranging from 1 nM to 100 uM) for 2 h before stimulation. An equal volume of 0.5% DMSO was used as a vehicle control. Then, the cells were treated with LPS at 5 ug/ml. The supernatants from treated cells were harvested at 24 h and placed in a 96 well for Luminex cytokine & chemokine profiling using a Luminex 200 multiplex assay (Luminex; R&D system, USA).
The main study arm with triplicate wells per group in a 24-well plate: • 1. Blank • 2. PBMC: 0.5% DMSO • 3. PBMC+LPS (5 ug/ml) • 4. PBMC+YY-101 100 uM • 5. PBMC+YY-101 10 uM • 6. PBMC+YY-101 1 uM • 7. PBMC+YY-101 0.1 uM • 8. PBMC+YY-101 0.01 uM • 9. PBMC+LPS (5 ug/ml)+Xiidra®100 uM • 10. PBMC+LPS (5 ug/ml)+Xiidra® 10 uM • 11. PBMC+LPS (5 ug/ml)+Xiidra® 1 uM • 12. PBMC+LPS (5 ug/ml)+Xiidra®0.1 uM • 13. PBMC+LPS (5 ug/ml)+Xiidra®0.01 uM • 14. PBMC+LPS (5 ug/ml)+Xiidra®0.001 uM • 15. PBMC+LPS (5 ug/ml)+YY-101 100 uM • 16. PBMC+LPS (5 ug/ml)+YY-101 10 uM • 17. PBMC+LPS (5 ug/ml)+YY-101 1 uM • 18. PBMC+LPS (5 ug/ml)+YY-101 0.1 uM • 19. PBMC+LPS (5 ug/ml)+YY-101 0.01 uM • 20. PBMC+LPS (5 ug/ml)+YY-101 0.001 uM • 21. PBMC+LPS (5 ug/ml)+YDE-011 100 uM • 22. PBMC+LPS (5 ug/ml)+YDE-011 10 uM • 23. PBMC+LPS (5 ug/ml)+YDE-011 1 uM • 24. PBMC+LPS (5 ug/ml)+YDE-011 0.1 uM • 25. PBMC+LPS (5 ug/ml)+YDE-011 0.01 uM • 26. PBMC+LPS (5 ug/ml)+YDE-011 0.001 uM • 27. PBMC+LPS (5 ug/ml)+YDE-043 100 uM • 28. PBMC+LPS (5 ug/ml)+YDE-043 10 uM • 29. PBMC+LPS (5 ug/ml)+YDE-043 1 uM • 30. PBMC+LPS (5 ug/ml)+YDE-043 0.1 uM • 31. PBMC+LPS (5 ug/ml)+YDE-043 0.01 uM • 32. PBMC+LPS (5 ug/ml)+YDE-043 0.001 uM
The number of PBMCs was measured after 24 hr of treatment. The culture both and trypan blue were diluted 1:1 and 10 ul was added to Countess cell counting chamber (Thermo fisher, USA). The number of PBMCs was measured using a Countess automated cell counter (Thermo fisher, USA).

[1] = PBMC + LPS(5 ug/ml), test article 100 uM, Mean
[2] = PBMC + LPS(5 ug/ml), test article 100 uM, single replicates
[3] = PBMC + compound 0.01 uM, no LPS, 24 hr
[4] = PBMC + compound 0.1 uM, no LPS, 24 hr
[5] = PBMC + compound 1 uM, no LPS, 24 hr
[6] = PBMC + compound 10 uM, no LPS, 24 hr
[7] = PBMC + compound 100 uM, no LPS, 24 hr
[8] = PBMC + test article 0.01 uM, no LPS, Mean
[9] = PBMC + test article 0.01 uM, no LPS, single replicates
[10] = PBMC + test article 0.1 uM, no LPS, Mean
[11] = PBMC + test article 0.1 uM, no LPS, single replicates
[12] = PBMC + test article 1 uM, no LPS, Mean
[13] = PBMC + test article 1 uM, no LPS, single replicates
[14] = PBMC + test article 10 uM, no LPS, Mean
[15] = PBMC + test article 10 uM, no LPS, single replicates
[16] = PBMC + test article 100 uM, no LPS, Mean
[17] = PBMC + test article 100 uM, no LPS, single replicates
[18] = PBMC without LPS, test article 0.01 uM, Mean
[19] = PBMC without LPS, test article 0.01 uM, single replicates
[20] = PBMC without LPS, test article 0.1 uM, Mean
[21] = PBMC without LPS, test article 0.1 uM, single replicates
[22] = PBMC without LPS, test article 1 uM, Mean
[23] = PBMC without LPS, test article 1 uM, single replicates
[24] = PBMC without LPS, test article 10 uM, Mean
[25] = PBMC without LPS, test article 10 uM, single replicates
[26] = PBMC without LPS, test article 100 uM, Mean
[27] = PBMC without LPS, test article 100 uM, single replicates

For CC(C)C[C@H](NC(=O)CNC(=O)[C@H](CC(=O)O)NC(=O)[C@H](CCC(N)=O)NC(=O)CNC(=O)[C@@H]1C[C@@H](O)CN1)C(=O)N[C@@H](C)C(=O)NCC(=O)N1CCC[C@H]1C(=O)N[C@@H](CCCCN)C(=O)O [YY-101] (H-[Hyp]GQDGLAGPK-OH; N-terminus and C-terminus assumed), the Live cell [1] was 5.8 10^5/ml, the Total cell count [1] was 7.8 10^5/ml and the Live cell [2] was 6.3 10^5/ml and 6.2 10^5/ml and 5.0 10^5/ml. The Total cell count [2] was 8.7 10^5/ml and 8.8 10^5/ml and 5.8 10^5/ml, the Viability [2] was 73.0% and 70.0% and 87.0% and the Live cell [3] was 5.0 ± 0.2 10^5/ml. For the same compound, the Total cell [3] was 5.9 ± 0.4 10^5/ml, the Live cell [4] was 5.1 ± 0.2 10^5/ml and the Total cell [4] was 6.1 ± 0.8 10^5/ml. For the same compound, the Live cell [5] was 5.5 ± 0.0 10^5/ml, the Total cell [5] was 6.1 ± 0.2 10^5/ml and the Live cell [6] was 6.3 ± 0.2 10^5/ml. The Total cell [6] was 7.4 ± 0.3 10^5/ml, the Live cell [7] was 6.7 ± 0.3 10^5/ml and the Total cell [7] was 7.8 ± 0.5 10^5/ml. For the same compound, the Live cell [8] was 5.0 10^5/ml, the “Live cell (10^5/ml)” value [8] was 5.0 10^5/ml and the “Live cell, Mean” value [8] was 5.0 10^5/ml. For the same compound, the Live cell (PBMC + test article 0.01 uM, no LPS, individual replicates (1st, 2nd)) was 5.2 10^5/ml and 4.8 10^5/ml, the Live cell [9] was 5.2 10^5/ml and 4.8 10^5/ml and the “Live cell (10^5/ml)” value [9] was 5.2 10^5/ml and 4.8 10^5/ml. The Live cell (PBMC + test article 0.01 uM, no LPS, single replicates (1st, 2nd)) was 5.2 10^5/ml and 4.8 10^5/ml, the Live cell [10] was 5.1 10^5/ml and the “Live cell (10^5/ml)” value [10] was 5.1 10^5/ml. For the same compound, the “Live cell, Mean” value [10] was 5.1 10^5/ml, the Live cell (PBMC + test article 0.1 uM, no LPS, individual replicates (1st, 2nd)) was 4.4 10^5/ml and 5.8 10^5/ml and the Live cell [11] was 4.4 10^5/ml and 5.8 10^5/ml. The “Live cell (10^5/ml)” value [11] was 4.4 10^5/ml and 5.8 10^5/ml, the Live cell (PBMC + test article 0.1 uM, no LPS, single replicates (1st, 2nd)) was 4.4 10^5/ml and 5.8 10^5/ml and the Live cell [12] was 5.5 10^5/ml. The “Live cell (10^5/ml)” value [12] was 5.5 10^5/ml, the “Live cell, Mean” value [12] was 5.5 10^5/ml and the Live cell (PBMC + test article 1 uM, no LPS, individual replicates (1st, 2nd)) was 5.5 10^5/ml. For the same compound, the Live cell [13] was 5.5 10^5/ml, the “Live cell (10^5/ml)” value [13] was 5.5 10^5/ml and the Live cell (PBMC + test article 1 uM, no LPS, single replicates (1st, 2nd)) was 5.5 10^5/ml. For the same compound, the Live cell [14] was 6.3 10^5/ml, the “Live cell (10^5/ml)” value [14] was 6.3 10^5/ml and the “Live cell, Mean” value [14] was 6.3 10^5/ml. For the same compound, the Live cell (PBMC + test article 10 uM, no LPS, individual replicates (1st, 2nd)) was 6.4 10^5/ml and 6.1 10^5/ml, the Live cell [15] was 6.4 10^5/ml and 6.1 10^5/ml and the “Live cell (10^5/ml)” value [15] was 6.4 10^5/ml and 6.1 10^5/ml. For the same compound, the Live cell (PBMC + test article 10 uM, no LPS, single replicates (1st, 2nd)) was 6.4 10^5/ml and 6.1 10^5/ml, the Live cell [16] was 6.7 10^5/ml and the “Live cell (10^5/ml)” value [16] was 6.7 10^5/ml. For the same compound, the “Live cell, Mean” value [16] was 6.7 10^5/ml, the Live cell (PBMC + test article 100 uM, no LPS, individual replicates (1st, 2nd)) was 6.4 10^5/ml and 7.0 10^5/ml and the Live cell [17] was 6.4 10^5/ml and 7.0 10^5/ml. The “Live cell (10^5/ml)” value [17] was 6.4 10^5/ml and 7.0 10^5/ml, the Live cell (PBMC + test article 100 uM, no LPS, single replicates (1st, 2nd)) was 6.4 10^5/ml and 7.0 10^5/ml and the Live cell (PBMC without LPS, 0.01 uM, Mean) was 5.0 10^5/ml. The Live cell (PBMC without LPS, 0.01 uM, single replicates) was 5.2 10^5/ml and 4.8 10^5/ml, the Live cell (PBMC without LPS, 0.1 uM, Mean) was 5.1 10^5/ml and the Live cell (PBMC without LPS, 0.1 uM, single replicates) was 4.4 10^5/ml and 5.8 10^5/ml. The Live cell (PBMC without LPS, 1 uM, Mean) was 5.5 10^5/ml, the Live cell (PBMC without LPS, 1 uM, single replicates) was 5.5 10^5/ml and the Live cell (PBMC without LPS, 10 uM, Mean) was 6.3 10^5/ml. For the same compound, the Live cell (PBMC without LPS, 10 uM, single replicates) was 6.4 10^5/ml and 6.1 10^5/ml, the Live cell (PBMC without LPS, 100 uM, Mean) was 6.7 10^5/ml and the Live cell (PBMC without LPS, 100 uM, single replicates) was 6.4 10^5/ml and 7.0 10^5/ml. For the same compound, the Live cell [18] was 5.0 10^5/ml, the Total cell count [18] was 5.9 10^5/ml and the Live cell [19] was 5.2 10^5/ml and 4.8 10^5/ml. For the same compound, the Total cell count [19] was 6.3 10^5/ml and 5.5 10^5/ml, the Viability [19] was 83.0% and 87.0% and the Live cell [20] was 5.1 10^5/ml. The Total cell count [20] was 6.1 10^5/ml, the Viability [20] was 84.0% and the Live cell [21] was 4.4 10^5/ml and 5.8 10^5/ml. For the same compound, the Total cell count [21] was 5.2 10^5/ml and 6.9 10^5/ml, the Viability [21] was 84.0% and the Live cell [22] was 5.5 10^5/ml. For the same compound, the Total cell count [22] was 6.1 10^5/ml, the Live cell [23] was 5.5 10^5/ml and the Total cell count [23] was 5.9 10^5/ml and 6.3 10^5/ml. For the same compound, the Viability [23] was 92.0% and 87.0%, the Live cell [24] was 6.3 10^5/ml and the Total cell count [24] was 7.4 10^5/ml. For the same compound, the Live cell [25] was 6.4 10^5/ml and 6.1 10^5/ml, the Total cell count [25] was 7.6 10^5/ml and 7.1 10^5/ml and the Viability [25] was 85.0% and 87.0%. The Live cell [26] was 6.7 10^5/ml, the Total cell count [26] was 7.8 10^5/ml and the Live cell [27] was 6.4 10^5/ml and 7.0 10^5/ml. The Total cell count [27] was 7.3 10^5/ml and 8.2 10^5/ml, the Viability [27] was 88.0% and 85.0% and the “viability / total number of PBMCs (in words)” value (up to 100 μM) was “didn't affect the basal levels of most of cytokine/chemokine production or the viability of hPBMCs; also recorded: didn't affect any viability or the total number of PBMCs”. For the same compound, the “which treatments consistently affected the total and live number of PBMCs or the percent viability (in words)” value (up to 100 μM, 24-hour treatment) was “none of”.
